Measured values published in patent publication US20040101503A1, “Use of protectin activator to enhance the skin's resistance, composition comprising such activators and selection method” (SOCIETE L'OREAL S.A., priority 2002, published 2004).

Test system: messenger RNAs coding for the protein CD59
Experiment: cDNA array of CD59 mRNA on standard human dermal fibroblasts
Type: cell-based
Settings: for Comparision of the Control Population with the Population Exposed to the Extract (in %) / Fibroblasts Exposed to the Extract (RE): 15 micrograms/ml; for Comparision of the Control Population with the Population Exposed to the Extract (in %): control = 100; for Fibroblasts Exposed to the Extract (RE): control fibroblasts 6.1 RE
Protocol: The methodology used is that recommended by Clontech (Palo Alto, USA). […] The total RNA solutions were treated with DNAse I in order to remove any trace of contaminant DNA, in accordance with the supplier's recommendations. The quality of the RNA was then verified on agarose gel and the RNA solutions were adjusted to 1 μg/ml.
The next step was the purification of the messenger RNAs (mRNA) by hybridization of the poly(A) ends of the mRNAs using biotinylated oligo(dT) primers and selective capture on streptavidin beads, in accordance with the Atlaspure protocol (Clontech). ^33P-labeled DNA probes were produced by reverse transcription of the niRNAs bound to poly(dT) beads, using a pool of specific primers of the immobilized sequences on membranes (arrays), in the presence of (α^33P)-dATP. This step used the reagents and the protocol recommended by Clontech. The labeled probes were purified by chromatography on an exclusion column, and the quality and equivalence of the labeled probes was evaluated by liquid scintillation counting.
cDNA array membranes were pretreated and then the cDNAs immobilized on each membrane were hybridized (68° C., overnight) with the corresponding labeled probes. The filters were subsequently washed and placed in individual plastic bags for analysis. Analysis took place by direct quantification of the radioactivity of the spots using a Cyclone phosphoimager (Packard). The results were expressed in relative expression units (RE, radioactivity of the spot corresponding to each gene, corrected for the background noise and for the differences in intensity of labeling of the probes).
The study was carried out on standard human fibroblasts. Dermal fibroblasts were cultivated in DMEM (Life Technology, ref. 21969035) containing L-glutamine (2 mM, Life Technology, ref. 25030024), 50 IU/ml penicillin and 50 μg/ml streptomycin (Life Technology, ref. 15070063) and 1% foetal calf serum (v/v, Life Technology, ref. 10106151).
A fraction of a root extract of Panax notoginseng (San Qi) containing only the saponins was tested for its activity in accordance with the protocol described in the foregoing example by the technique of cDNA array on fibroblasts. The two principal saponins from the extract were also tested.
All the products were tested at a final concentration of 15 micrograms/ml

CC(C)=CCC[C@](C)(O[C@@H]1O[C@H](CO[C@@H]2O[C@H](CO)[C@@H](O)[C@H](O)[C@H]2O)[C@@H](O)[C@H](O)[C@H]1O)[C@H]1CC[C@]2(C)[C@@H]1[C@H](O)C[C@@H]1[C@@]3(C)CC[C@H](O[C@@H]4O[C@H](CO)[C@@H](O)[C@H](O)[C@H]4O[C@@H]4O[C@H](CO)[C@@H](O)[C@H](O)[C@H]4O)C(C)(C)[C@@H]3CC[C@]12C [Rb1, Rb1 ginsenoside]
effect on expression of messenger RNAs coding for the protein CD59 (in words): significantly modify | Comparision of the Control Population with the Population Exposed to the Extract (in %): 277% | Fibroblasts Exposed to the Extract (RE): 13.8 RE

CC(C)=CCC[C@](C)(O[C@@H]1O[C@H](CO)[C@@H](O)[C@H](O)[C@H]1O)[C@H]1CC[C@]2(C)[C@@H]1[C@H](O)C[C@@H]1[C@@]3(C)CC[C@H](O)C(C)(C)[C@@H]3[C@@H](O[C@@H]3O[C@H](CO)[C@@H](O)[C@H](O)[C@H]3O)C[C@]12C [Rg1, Rg1 ginsenoside]
effect on expression of messenger RNAs coding for the protein CD59 (in words): significantly modify | Comparision of the Control Population with the Population Exposed to the Extract (in %): 277% | Fibroblasts Exposed to the Extract (RE): 16.8 RE
